# Assay results as given in patent US20260078122A1, “INDAZOLE COMPOUNDS AS PKMYT1 KINASE INHIBITORS” (Hoffmann-La Roche Inc., priority 2023, published 2026).
# System: not listed separately
# Assay: Human microsome stability assay
# Conditions: 1 μM compound, 0.5 mg/mL liver microsomal protein, 1 mM NADPH, 37° C., 0-30 minutes
row,Clearance of Human microsome [mL/min/kg],Compound
1,6.15,"Nc1c(-c2ccc(F)c3[nH]ncc23)c2ncc(F)cc2[nH]c1=O [Example 004, 3-Amino-7-fluoro-4-(7-fluoro-1H-indazol-4-y1)-1H-1,5-naphthyridin-2-one]"
2,6.15,"COc1cnc2c(-c3ccc(F)c4[nH]ncc34)c(N)c(=O)[nH]c2c1 [Example 006, 3-Amino-4-(7-fluoro-1H-indazol-4-yl)-7-methoxy-1H-1,5-naphthyridin-2-one]"
3,6.15,"Cn1cncc1-c1cnc2c(-c3ccc(F)c4[nH]ncc34)c(N)c(=O)[nH]c2c1 [Example 008, 3-Amino-4-(7-fluoro-1H-indazol-4-yl)-7-(3-methylimidazol-4-yl)-1H-1,5-naphthyridin-2-one]"
4,6.15,"Nc1c(-c2ccc(F)c3[nH]ncc23)c2ncc(-c3ccn[nH]3)cc2[nH]c1=O [Example 009, 3-Amino-4-(7-fluoro-1H-indazol-4-yl)-7-(1H-pyrazol-5-yl)-1H-1,5-naphthyridin-2-one]"
5,6.15,"Nc1c(-c2ccc(F)c3[nH]ncc23)c2ncc(-c3ccnnc3)cc2[nH]c1=O [Example 012, 3-Amino-4-(7-fluoro-1H-indazol-4-yl)-7-pyridazin-4-yl-1H-1,5-naphthyridin-2-one]"
6,6.15,"Nc1c(-c2ccc(F)c3[nH]ncc23)c2ncc(-c3ccc(F)cn3)cc2[nH]c1=O [Example 014, 3-Amino-4-(7-fluoro-1H-indazol-4-yl)-7-(5-fluoro-2-pyridyl)-1H-1,5-naphthyridin-2-one]"
7,8.06,"Nc1c(-c2ccc(F)c3[nH]ncc23)c2ncc(-c3nccs3)cc2[nH]c1=O [Example 016, 3-Amino-4-(7-fluoro-1H-indazol-4-yl)-7-thiazol-2-yl-1H-1,5-naphthyridin-2-one]"
8,6.15,"Nc1c(-c2ccc(F)c3[nH]ncc23)c2ncc(N3CCOCC3)cc2[nH]c1=O [Example 019, 3-Amino-4-(7-fluoro-1H-indazol-4-yl)-7-morpholino-1H-1,5-naphthyridin-2-one]"
9,6.15,"CC(C)(O)c1cnc2c(-c3ccc(F)c4[nH]ncc34)c(N)c(=O)[nH]c2c1 [Example 020, 3-Amino-4-(7-fluoro-1H-indazol-4-yl)-7-(1-hydroxy-1-methyl-ethyl)-1H-1,5-naphthyridin-2-one]"
10,8.58,"Cc1cc2[nH]c(=O)c(N)c(-c3ccc(F)c4[nH]ncc34)c2nc1NC(C)C [Example 023, 3-Amino-4-(7-fluoro-1H-indazol-4-yl)-6-(isopropylamino)-7-methyl-1H-1,5-naphthyridin-2-one]"
11,6.22,"Cc1cnc2c(-c3cccc4[nH]ncc34)c(N)c(=O)[nH]c2c1 [Example 033, 3-Amino-4-(1H-indazol-4-yl)-7-methyl-1H-1,5-naphthyridin-2-one]"
12,6.15,"Nc1c(-c2cccc3[nH]ncc23)c2ncc(C3CC3)cc2[nH]c1=O [Example 034, 3-Amino-7-cyclopropyl-4-(1H-indazol-4-yl)-1H-1,5-naphthyridin-2-one]"
13,6.15,"Nc1c(-c2cc(F)cc3[nH]ncc23)c2ncc(Cl)cc2[nH]c1=O [Example 036, 3-Amino-7-chloro-4-(6-fluoro-1H-indazol-4-yl)-1H-1,5-naphthyridin-2-one]"
14,6.15,"Cc1cc2[nH]c(=O)c(N)c(-c3ccc(F)c4[nH]ncc34)c2nc1N1CCNCC1 [Example 044, 3-Amino-4-(7-fluoro-1H-indazol-4-yl)-7-methyl-6-piperazin-1-yl-1H-1,5-naphthyridin-2-one]"
15,6.15,"Nc1c(-c2ccc(F)c3[nH]ncc23)c2nccc(Cl)c2[nH]c1=O [Example 050, 3-Amino-8-chloro-4-(7-fluoro-1H-indazol-4-yl)-1H-1,5-naphthyridin-2-one]"
16,6.15,"COc1c(C)cnc2c(-c3ccc(F)c4[nH]ncc34)c(N)c(=O)[nH]c12 [Example 051, 3-Amino-4-(7-fluoro-1H-indazol-4-yl)-8-methoxy-7-methyl-1H-1,5-naphthyridin-2-one]"
17,8.09,"Cc1cnc2c(-c3ccc(F)c4[nH]ncc34)c(N)c(=O)[nH]c2c1Cl [Example 053, 3-Amino-8-chloro-4-(7-fluoro-1H-indazol-4-yl)-7-methyl-1H-1,5-naphthyridin-2-one]"
18,7.47,"Cc1nc2c(-c3ccc(F)c4[nH]ncc34)c(N)c(=O)[nH]c2c(C)c1Cl [Example 056, 3-Amino-7-chloro-4-(7-fluoro-1H-indazol-4-yl)-6,8-dimethyl-1H-1,5-naphthyridin-2-one]"
19,6.15,"CCOC(=O)COc1nc2c(-c3ccc(F)c4[nH]ncc34)c(N)c(=O)[nH]c2cc1C [Example 061, Ethyl 2-[[7-amino-8-(7-fluoro-1H-indazol-4-yl)-3-methyl-6-oxo-5H-1,5-naphthyridin-2-yl]oxy]acetate]"
20,7.78,"Cc1cc2[nH]c(=O)c(N)c(-c3ccc(F)c4[nH]ncc34)c2nc1C1CCNCC1 [Example 069, 3-Amino-4-(7-fluoro-1H-indazol-4-yl)-7-methyl-6-(4-piperidyl)-1H-1,5-naphthyridin-2-one]"
21,6.15,"Cc1cc2[nH]c(=O)c(N)c(-c3ccc(F)c4[nH]ncc34)c2nc1C(=O)O [Example 089, 7-Amino-8-(7-fluoro-1H-indazol-4-yl)-3-methyl-6-oxo-5H-1,5-naphthyridine-2-carboxylic acid]"

# Target: T1, recombinant human Myt1 (full length PKMYT1) (Homo sapiens, UniProt Q99640)
# T1 sequence (Q99640 1-499): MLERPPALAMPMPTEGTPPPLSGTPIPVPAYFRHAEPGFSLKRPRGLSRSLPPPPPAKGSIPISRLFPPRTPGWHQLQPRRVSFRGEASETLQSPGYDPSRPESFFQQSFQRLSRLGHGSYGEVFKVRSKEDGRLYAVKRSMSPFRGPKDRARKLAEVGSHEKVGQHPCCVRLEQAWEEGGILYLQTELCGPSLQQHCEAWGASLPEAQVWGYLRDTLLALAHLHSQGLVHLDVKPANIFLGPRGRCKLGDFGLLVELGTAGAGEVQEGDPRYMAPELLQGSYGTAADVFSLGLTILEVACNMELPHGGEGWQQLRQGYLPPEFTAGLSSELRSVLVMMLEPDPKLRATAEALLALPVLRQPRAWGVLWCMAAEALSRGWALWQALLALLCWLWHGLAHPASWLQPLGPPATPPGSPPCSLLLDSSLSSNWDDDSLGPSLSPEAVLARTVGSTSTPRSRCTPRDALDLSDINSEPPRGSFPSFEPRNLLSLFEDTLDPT
# Assay: ADP-Glo assay (Myt1 kinase activity)
# Conditions: not given
row,Compound,IC50 [nM]
1,"CCOC(=O)COc1nc2c(-c3ccc(F)c4[nH]ncc34)c(N)c(=O)[nH]c2cc1C [Example 061, Ethyl 2-[[7-amino-8-(7-fluoro-1H-indazol-4-yl)-3-methyl-6-oxo-5H-1,5-naphthyridin-2-yl]oxy]acetate]",17.7
2,"Cc1cc2[nH]c(=O)c(N)c(-c3ccc(F)c4[nH]ncc34)c2nc1C1CCNCC1 [Example 069, 3-Amino-4-(7-fluoro-1H-indazol-4-yl)-7-methyl-6-(4-piperidyl)-1H-1,5-naphthyridin-2-one]",10.9
3,"Cc1ncc(OC2CCC2)c2c(-c3ccc(F)c4[nH]ncc34)c(N)c(=O)[nH]c12 [Example 189, 3-Amino-5-(cyclobutoxy)-4-(7-fluoro-1H-indazol-4-yl)-8-methyl-1H-1,7-naphthyridin-2-one]",10.6

# The next lines start with the values.
row,IC50 [nM],Compound
1,14.3,"Cc1ncc(Cl)c2c(-c3ccc(F)c4[nH]ncc34)c(N)c(=O)[nH]c12 [Example 176, 3-Amino-5-chloro-4-(7-fluoro-1H-indazol-4-yl)-8-methyl-1H-1,7-naphthyridin-2-one]"
2,13.9,"Cc1ncc(C)c2c(-c3ccc(F)c4[nH]ncc34)c(N)c(=O)[nH]c12 [Example 177, 3-Amino-4-(7-fluoro-1H-indazol-4-yl)-5,8-dimethyl-1H-1,7-naphthyridin-2-one]"
3,18.1,"CCc1cnc(C)c2[nH]c(=O)c(N)c(-c3ccc(F)c4[nH]ncc34)c12 [Example 178, 3-Amino-5-ethyl-4-(7-fluoro-1H-indazol-4-yl)-8-methyl-1H-1,7-naphthyridin-2-one]"
4,12.5,"Cc1ncc(F)c2c(-c3ccc(F)c4[nH]ncc34)c(N)c(=O)[nH]c12 [Example 179, 3-Amino-5-fluoro-4-(7-fluoro-1H-indazol-4-yl)-8-methyl-1H-1,7-naphthyridin-2-one]"
5,22.6,"Nc1c(-c2ccc(F)c3[nH]ncc23)c2c(OCc3ccccc3)cnc(Cl)c2[nH]c1=O [Example 180, 3-Amino-5-benzyloxy-8-chloro-4-(7-fluoro-1H-indazol-4-yl)-1H-1,7-naphthyridin-2-one]"
6,20,"Cc1ncc(OCc2ccccc2)c2c(-c3ccc(F)c4[nH]ncc34)c(N)c(=O)[nH]c12 [Example 181, 3-Amino-5-benzyloxy-4-(7-fluoro-1H-indazol-4-yl)-8-methyl-1H-1,7-naphthyridin-2-one]"
7,15.8,"Cc1ncc(OCC(F)F)c2c(-c3ccc(F)c4[nH]ncc34)c(N)c(=O)[nH]c12 [Example 186, 3-Amino-5-(2,2-difluoroethoxy)-4-(7-fluoro-1H-indazol-4-yl)-8-methyl-1H-1,7-naphthyridin-2-one]"
8,10.8,"Cc1ncc(OC2CC2)c2c(-c3ccc(F)c4[nH]ncc34)c(N)c(=O)[nH]c12 [Example 187, 3-Amino-5-(cyclopropoxy)-4-(7-fluoro-1H-indazol-4-yl)-8-methy-1H-1,7-naphthyridin-2-one]"
9,15,"Cc1ncc(OCCC(F)F)c2c(-c3ccc(F)c4[nH]ncc34)c(N)c(=O)[nH]c12 [Example 188, 3-Amino-5-(3,3-difluoropropoxy)-4-(7-fluoro-1H-indazol-4-yl)-8-methyl-1H-1,7-naphthyridin-2-one]"
10,15.3,"CCCOc1cnc(C)c2[nH]c(=O)c(N)c(-c3ccc(F)c4[nH]ncc34)c12 [Example 190, 3-Amino-4-(7-fluoro-1H-indazol-4-yl)-8-methyl-5-propoxy-1H-1,7-naphthyridin-2-one]"
11,15.7,"Cc1ncc(OCC2CC2)c2c(-c3ccc(F)c4[nH]ncc34)c(N)c(=O)[nH]c12 [Example 191, 3-Amino-5-(cyclopropylmethoxy)-4-(7-fluoro-1H-indazol-4-yl)-8-methyl-1H-1,7-naphthyridin-2-one]"
12,< 10,"Cc1ncc(OC(F)(F)F)c2c(-c3ccc(F)c4[nH]ncc34)c(N)c(=O)[nH]c12 [Example 192, 3-Amino-4-(7-fluoro-1H-indazol-4-yl)-8-methyl-5-(trifluoromethoxy)-1H-1,7-naphthyridin-2-one]"
13,33.3,"COCc1cnc(C)c2[nH]c(=O)c(N)c(-c3ccc(F)c4[nH]ncc34)c12 [Example 193, 3-Amino-4-(7-fluoro-1H-indazol-4-yl)-5-(methoxymethyl)-8-methyl-1H-1,7-naphthyridin-2-one]"
